Values after ≈ are worked out from the molar mass of the structure shown. Like-named read-outs stand apart in the source and are kept apart here.
How the values were obtained:
[1] = test system: S. aureus ITS-1199B (overexpression of the efflux pump NorA); type: cell-based, Staphylococcus aureus; details: resistant strain R NorA; for MIC (μg/ml) of compound in the presence of ciprofloxacin at 4 μg/ml (c/4): ciprofloxacin 4 μg/ml (c/4); for MIC (μg/ml) of compound in the presence of ciprofloxacin at 8 μg/ml (c/2): ciprofloxacin 8 μg/ml (c/2)
Description: (§1) The two strains used are Staphylococcus aureus (ATCC 25923, sensitive Gram-positive strain) denoted S, and S. aureus ITS-1199 (without efflux), as well as its derivative S. aureus ITS-1199B (Kaatz, G. W., Seo, S. M., Antimicrob. Agents Chemother., 1995, 39, 2650-2655) having a resistance to the fluoroquinolones due to the overexpression of the efflux pump NorA and denoted R NorA. The bacteria are cultured at 37° C. in Mueller-Hinton (MH, Bio Rad) or Luria-Bertani (LB, Difco) Medium.
The experiences are carried out as above, but using the resistant strain, and looking at the effect of the mixture of the molecule to be tested and the antibiotic to which the bacterium is resistant. Thus, the method of a series of dilutions in Mueller-Hinton medium is used, also starting from a molecule concentration of 100 or 128 μg/ml.

[2] = In vitro cytotoxicity on Vero cells; type: cell-based; details: monkey
Description: (§2) The in vitro cytotoxicity results, measured at a concentration of 10^−5 M, are described below. The cytotoxicity was measured on 5 cell lines—KB (human mouth carcinoma), MCF7 (breast carcinoma) and MCF7R (resistant strain), Vero (monkey kidney) and HCT116 (human colon tumour).

[3] = In vitro cytotoxicity on HCT116 cells; type: cell-based; details: human, concentration of 10^−5 M, read-out: Average cytotoxicity (% inhibition), HCT116 cells
Description: as §2

[4] = test system: Staphylococcus aureus (ATCC 25923, sensitive Gram-positive strain); test: Determination of the antibacterial activity: MIC in liquid Mueller-Hinton medium (intrinsic antibacterial activity); type: cell-based; details: read-out: MIC / Antibacterial Activity (AA)
Description: as §1
The experiments described hereafter are carried out following the recommendations of the Comité de l'Antibiogramme de la Société Française de Microbiologic (http://www.sfm.asso.fr/nouv/general.php See also Courvalin, P., Goldstein, F., Philippon, A., Sirot J. L'antibiogramme, 1985, M.P.C.-Videom editor). The antibacterial activity of the molecules was determined in liquid medium using a Biomek 2000 robot (Beckman) and micro-titration plates. The final volume in each well is 200 μl. A maximum volume of 5 μl of a solution of the molecule in DMSO is added to each well containing 10^6 CFU/ml (Colony Forming Units) of bacteria in MH medium. The final concentration of the molecule to be tested must be 100 or 128 μg/ml. […] Ampicillin is used as a positive control and the same volume of DMSO as that used to introduce the molecule (generally 2 to 5 μl) as a negative control.
The experiments are repeated three times.

[5] = test system: KB (human mouth carcinoma); test: In vitro cytotoxicity on KB cells; type: cell-based
Description: as §2

[6] = Vero cells (monkey kidney), concentration of 10^−5 M, read-out: Average cytotoxicity (% inhibition), Vero cells
[7] = HCT116 cells (human colon tumour)
[8] = concentration of 10^−5 M, read-out: Average cytotoxicity (% inhibition), Vero cells
[9] = ATCC25923, compound alone, lowest concentration allowing no growth after 18 hours at 37° C., 10^6 CFU/ml

COc1cc(CN(O)C(CNC(=O)OC(C)(C)C)c2c[nH]c3ccc(Br)cc23)cc(OC)c1 (stereo not drawn) [(10)]
MIC (μg/ml) of compound in the presence of ciprofloxacin at 4 μg/ml (c/4) [1]: 8 µg/mL

CC(C)(C)OC(=O)NCC(c1c[nH]c2ccc(Br)cc12)[N+]([O-])=Cc1ccccc1 (stereo not drawn) [(20 bis)]
MIC (μg/ml) of compound in the presence of ciprofloxacin at 4 μg/ml (c/4) [1]: 1 µg/mL
MIC (μg/ml) of compound in the presence of ciprofloxacin at 8 μg/ml (c/2) [1]: 1 µg/mL

COc1ccc(/C=[N+](\[O-])C(CNC(=O)OC(C)(C)C)c2c[nH]c3ccc(Br)cc23)cc1 (stereo not drawn) [(20)]
MIC (μg/ml) of compound in the presence of ciprofloxacin at 4 μg/ml (c/4) [1]: 3 µg/mL
MIC (μg/ml) of compound in the presence of ciprofloxacin at 8 μg/ml (c/2) [1]: <3 µg/mL

CC(C)(C)OC(=O)NCC(NO)c1c[nH]c2ccc(Br)cc12 (stereo not drawn) [(21), 1-N-(hydroxy)amino-2-[N′-(tert-butoxycarbonyl)amino]-1-(5′-bromo-3′-indolyl) ethane]
cytotoxicity [2, 6]: 11%
cytotoxicity [3, 7]: 28%
MIC ([4]; ATCC25923, 18 h): 50 mg/L (≈ 135 µM)
Average cytotoxicity (% inhibition), KB cells ([5]; concentration of 10^−5 M): 0%

CC(C)(C)OC(=O)NCC(NO)c1c[nH]c2cc(Br)ccc12 (stereo not drawn) [(22)]
cytotoxicity [2, 6]: 22%
cytotoxicity [3, 7]: 37%
MIC ([4]; ATCC25923, 18 h): 50 mg/L (≈ 135 µM)
Average cytotoxicity (% inhibition), KB cells ([5]; concentration of 10^−5 M): 0%

CC(C)(C)OC(=O)NCC(N)c1c[nH]c2ccccc12 (stereo not drawn) [(23)]
cytotoxicity [2, 6]: 11%
MIC (μg/ml) of compound in the presence of ciprofloxacin at 8 μg/ml (c/2) [1]: 4 µg/mL
cytotoxicity [3, 7]: 5%
Average cytotoxicity (% inhibition), KB cells ([5]; concentration of 10^−5 M): 2%

CC(C)(C)OC(=O)NCC(N)c1c[nH]c2ccc(Br)cc12 (stereo not drawn) [(25), 1-amino-2-[N′-(tert-butoxycarbonyl)amino]-1-(5′-bromo-3′-indolyl) ethane]
MIC ([4]; ATCC25923, 18 h): 25 mg/L (≈ 70.6 µM)

CC(C)(C)OC(=O)NCC(N)c1c[nH]c2cc(Br)ccc12 (stereo not drawn) [(26)]
MIC ([4]; ATCC25923, 18 h): 25 mg/L (≈ 70.6 µM)

Cl.Cl.NCC(N)c1c[nH]c2ccc(Br)cc12 (stereo not drawn) [(27), 1,2-diamino-1-(5′-bromo-3′-indolyl)ethane dihydrochloride]
cytotoxicity [2, 8]: 14%
cytotoxicity [3]: 26%
MIC [4, 9]: 25 mg/L
Average cytotoxicity (% inhibition), KB cells ([5]; concentration of 10^−5 M): 0%

NCC(N)c1c[nH]c2cc(Br)ccc12 (stereo not drawn) [(28)]
MIC [4, 9]: 25 mg/L (≈ 98.4 µM)

COc1ccc2c(C(N)CN)c[nH]c2c1 (stereo not drawn) [(31)]
cytotoxicity [2]: 27%
MIC [4, 9]: 64 mg/L (≈ 312 µM)
Average cytotoxicity (% inhibition), KB cells ([5]; human): 41%

Cl.Cl.NCC(NO)c1c[nH]c2ccc(Br)cc12 (stereo not drawn) [(32), 1-(N-hydroxy)-1,2-diamino-1-(5′-bromo-3′-indolyl)ethane dihydrochloride]
cytotoxicity [2, 8]: 20%
MIC [4, 9]: 3 mg/L
Average cytotoxicity (% inhibition), KB cells ([5]; concentration of 10^−5 M): 23%

Cl.Cl.NCC(NO)c1c[nH]c2cc(Br)ccc12 (stereo not drawn) [(33)]
cytotoxicity [2, 8]: 31%
cytotoxicity [3]: 37%
MIC [4, 9]: 6 mg/L
Average cytotoxicity (% inhibition), KB cells ([5]; concentration of 10^−5 M): 14%

CC(C)(C)OC(=O)NCC(NC(=O)OC(C)(C)C)c1c[nH]c2cc(Br)ccc12 (stereo not drawn) [(36)]
MIC (μg/ml) of compound in the presence of ciprofloxacin at 4 μg/ml (c/4) [1]: 8 µg/mL

CC(c1c[nH]c2ccccc12)N(O)Cc1ccccc1 (stereo not drawn) [(37)]
MIC (μg/ml) of compound in the presence of ciprofloxacin at 4 μg/ml (c/4) [1]: >8 µg/mL
MIC (μg/ml) of compound in the presence of ciprofloxacin at 8 μg/ml (c/2) [1]: >8 µg/mL

COc1ccc2[nH]cc(C(C)N(O)Cc3ccccc3)c2c1 (stereo not drawn) [(38)]
cytotoxicity [2, 6]: 5%
MIC (μg/ml) of compound in the presence of ciprofloxacin at 8 μg/ml (c/2) [1]: >8 µg/mL
cytotoxicity [3, 7]: 15%
Average cytotoxicity (% inhibition), KB cells ([5]; concentration of 10^−5 M): 0%

COc1ccc(CN(O)C(CC(C)C)c2c[nH]c3ccccc23)c(OC)c1 (stereo not drawn) [(40)]
cytotoxicity [2, 6]: 32%
MIC (μg/ml) of compound in the presence of ciprofloxacin at 8 μg/ml (c/2) [1]: >8 µg/mL
cytotoxicity [3, 7]: 46%
Average cytotoxicity (% inhibition), KB cells ([5]; concentration of 10^−5 M): 13%

O=[N+]([O-])c1ccc(C(c2c[nH]c3ccccc23)N(O)Cc2ccccc2)cc1 (stereo not drawn) [(42)]
MIC ([4]; ATCC25923, 18 h): 50 mg/L (≈ 134 µM)

CC(c1c[nH]c2ccc(Br)cc12)/[N+]([O-])=C\c1ccccc1 (stereo not drawn) [(43)]
MIC ([4]; ATCC25923, 18 h): 100 mg/L (≈ 291 µM)

CC(C)(C)OC(=O)NCC(NO)c1c[nH]c2ccccc12 (stereo not drawn) [(46), 1-N-(hydroxy)amino-2-[N′-(tert-butoxycarbonyl)amino]-1-(indol-3′-yl)ethane]
cytotoxicity [2, 6]: 0%
cytotoxicity [3, 7]: 39%
Average cytotoxicity (% inhibition), KB cells ([5]; concentration of 10^−5 M): 31%

CC(c1c[nH]c2ccc(Br)cc12)N(O)Cc1ccccc1 (stereo not drawn) [Compound (1)]
cytotoxicity [2, 6]: 36%
cytotoxicity [3, 7]: 28%
MIC [4, 9]: 25 mg/L (≈ 72.4 µM)
Average cytotoxicity (% inhibition), KB cells ([5]; concentration of 10^−5 M): 50%

CC(c1c[nH]c2cc(Br)ccc12)N(O)Cc1ccccc1 (stereo not drawn) [Compound (2)]
MIC ([4]; ATCC25923, 18 h): 100 mg/L (≈ 290 µM)

COc1ccc(CN(O)C(C)c2c[nH]c3ccc(Br)cc23)cc1 (stereo not drawn) [Compound (3)]
MIC ([4]; ATCC25923, 18 h): 100 mg/L (≈ 266 µM)

CC(C)(C)OC(=O)NCC(c1c[nH]c2ccc(Br)cc12)N(O)Cc1ccccc1 (stereo not drawn) [Compound (4)]
MIC ([4]; ATCC25923, 18 h): 25 mg/L (≈ 54.3 µM)

CC(C)(C)OC(=O)NCC(c1c[nH]c2cc(Br)ccc12)N(O)Cc1ccccc1 (stereo not drawn) [Compound (5)]
MIC (μg/ml) of compound in the presence of ciprofloxacin at 4 μg/ml (c/4) [1]: 2 µg/mL
MIC [4, 9]: 6 mg/L (≈ 13 µM)

COc1ccc(CN(O)C(CNC(=O)OC(C)(C)C)c2c[nH]c3ccc(Br)cc23)c(OC)c1 (stereo not drawn) [Compound (8)]
MIC (μg/ml) of compound in the presence of ciprofloxacin at 4 μg/ml (c/4) [1]: 8 µg/mL
MIC (μg/ml) of compound in the presence of ciprofloxacin at 8 μg/ml (c/2) [1]: 8 µg/mL

CC(C)(C)OC(=O)NCC(c1c[nH]c2ccccc12)N(O)C(=O)OC(C)(C)C (stereo not drawn) [Compound (11)]
cytotoxicity [2, 6]: 15%
cytotoxicity [3, 7]: 22%
Average cytotoxicity (% inhibition), KB cells ([5]; concentration of 10^−5 M): 14%

CC(C)(C)OC(=O)NCC(c1c[nH]c2ccc(Cl)cc12)N(O)C(=O)OC(C)(C)C (stereo not drawn) [Compound (12)]
MIC (μg/ml) of compound in the presence of ciprofloxacin at 4 μg/ml (c/4) [1]: 4 µg/mL
MIC [4, 9]: 12.5 mg/L (≈ 29.3 µM)

CC(C)(C)OC(=O)NCC(c1c[nH]c2ccc(Br)cc12)N(O)C(=O)OC(C)(C)C (stereo not drawn) [Compound (13), 1-[N-(tert-butoxycarbonyl)-N-(hydroxy)amino]-2-[N-(tert-butoxycarbonyl)]-1-(5′-bromo-3′-indolyl)ethane]
MIC ([4]; ATCC25923, 18 h): 50 mg/L (≈ 106 µM)

CC(NCc1ccccc1)c1c[nH]c2ccc(Br)cc12 (stereo not drawn) [Compound (15)]
MIC ([4]; ATCC25923, 18 h): 25 mg/L (≈ 75.9 µM)

CC(C)CC(c1c[nH]c2ccccc12)N(O)C(=O)OC(C)(C)C (stereo not drawn) [Compound (47)]
MIC (μg/ml) of compound in the presence of ciprofloxacin at 4 μg/ml (c/4) [1]: 32 µg/mL
MIC [4, 9]: 64 mg/L (≈ 201 µM)

O=C(CONC(=O)OCC1c2ccccc2-c2ccccc21)NC(COCc1ccccc1)c1c[nH]c2ccccc12 (stereo not drawn) [Compound (48)]
MIC (μg/ml) of compound in the presence of ciprofloxacin at 4 μg/ml (c/4) [1]: 2 µg/mL

COc1ccc2c(C(CNC(=O)OC(C)(C)C)N(O)Cc3ccccc3)c[nH]c2c1 (stereo not drawn) [Compound (50), 1-[N-benzyl-N-(hydroxy)amino]-2-[N′-(tert-butoxycarbonyl)amino]-1-(6′-methoxyindol-3′-yl)ethane]
cytotoxicity [2, 6]: 42%
